Experiments:
Assay type in all cases: biochemical
[1] = target: cathepsin B (Homo sapiens, UniProt P07858); test: Inhibitory activity assay against cathepsin B (enzyme assay); conditions: Z-Arg-Arg-AMC 40 μM, enzyme 1 nM, pH 6.0, 90 minutes
Protocol: In order to measure the enzyme activity of cathepsin B, a buffer solution (pH 6.0) consisting of 50 mM MES, 5 mM DTT, 2.5 mM EDTA, 0.005% Polysorbate 20, and 10% DMSO was prepared. The substrate, the test material, and the enzyme were mixed in the buffer solution in a predetermined concentration. The Z-Arg-Arg-AMC substrate was used in the final concentration of 40 μM. The test material was used in the final concentrations of 10.0 μM, 3.33 μM, 1.11 μM, 0.370 μM, 0.123 μM, 0.0412 μM, 0.0137 μM, 0.00457 μM, 0.00152 μM, and 0.000508 μM, respectively. The cathepsin B enzyme was used in the final concentration of 1 nM. The final volume of the enzyme reaction solution was 10 μL. After reacting the mixture of substrate, test material, and enzyme for 90 minutes, the enzyme activity was measured with the EnVision (Perkin Elmer) microplate reader at an absorption wavelength of 340 nm and an emission wavelength of 460 nm. IC50 values were determined using 4-parameter logistic curve fit program of GraphPad Prism.

[2] = target: T1, cathepsin K (Homo sapiens, UniProt P43235); test: Inhibitory activity assay against cathepsin K (enzyme assay); conditions: Z-Phe-Arg-AMC 10 μM, enzyme 1 nM, pH 5.5, 30 minutes
T1 sequence (P43235 115-329): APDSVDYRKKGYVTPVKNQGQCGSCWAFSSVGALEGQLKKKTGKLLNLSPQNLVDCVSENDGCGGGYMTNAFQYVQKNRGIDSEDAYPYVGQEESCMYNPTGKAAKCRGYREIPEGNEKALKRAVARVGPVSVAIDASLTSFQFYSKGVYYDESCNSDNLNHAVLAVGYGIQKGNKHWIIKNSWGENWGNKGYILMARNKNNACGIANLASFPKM
In short: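 Fluorogenic assay with 1 nM cathepsin K and 10 μM Z-Phe-Arg-AMC in pH 5.5 buffer (50 mM MES, 2 mM DTT, 2.5 mM EDTA, 0.01% Triton X-100, 10% DMSO). Ten compound concentrations, 10.0 to 0.000508 μM; 30 min reaction, ex 355/em 460 nm; IC50 by 4-parameter logistic fit.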

[3] = target: cathepsin S (Homo sapiens, UniProt P25774); test: Inhibitory activity assay against cathepsin S (enzyme assay); conditions: Z-Phe-Arg-AMC 70 μM, enzyme 3 nM, pH 6.5, 45 minutes
Protocol: In order to measure the enzyme activity of cathepsin S, a buffer solution (pH 6.5) consisting of 50 mM MES, 2.5 mM DTT, 1.0 mM EDTA, 0.001% bovine serum albumin (BSA), and 10% DMSO was prepared. The substrate, the test material, and the enzyme were mixed in the buffer solution in a predetermined concentration. The Z-Phe-Arg-AMC substrate was used in the final concentration of 70 μM. The test material was used in the final concentrations of 10.0 μM, 3.33 μM, 1.11 μM, 0.370 μM, 0.123 μM, 0.0412 μM, 0.0137 μM, 0.00457 μM, 0.00152 μM, and 0.000508 μM, respectively. The cathepsin S enzyme was used in the final concentration of 3 nM. The final volume of the enzyme reaction solution was 10 μL.
After reacting the mixture of substrate, test material, and enzyme for 45 minutes, the enzyme activity was measured with the EnVision (Perkin Elmer) microplate reader at an absorption wavelength of 340 nm and an emission wavelength of 460 nm. IC50 values were determined using 4-parameter logistic curve fit program of GraphPad Prism.

[4] = target: cathepsin L (Homo sapiens, UniProt P07711); test: Inhibitory activity assay against cathepsin L (enzyme assay); conditions: Z-Phe-Arg-AMC 2 μM, enzyme 3 nM, pH 5.5, 30 minutes
Protocol: In order to measure the enzyme activity of cathepsin L, a buffer solution (pH 5.5) consisting of 50 mM MES, 2.5 mM DTT, 2.5 mM EDTA, 0.005% Polysorbate 20, and 10% DMSO was prepared. The substrate, the test material, and the enzyme were mixed in the buffer solution in a predetermined concentration. The Z-Phe-Arg-AMC substrate was used in the final concentration of 2 μM. The test material was used in the final concentrations of 10.0 μM, 3.33 μM, 1.11 μM, 0.370 μM, 0.123 μM, 0.0412 μM, 0.0137 μM, 0.00457 μM, 0.00152 μM, and 0.000508 μM, respectively. The cathepsin L enzyme was used in the final concentration of 3 nM. The final volume of the enzyme reaction solution was 10 μL. After reacting the mixture of substrate, test material, and enzyme for 30 minutes, the enzyme activity was measured with the EnVision (Perkin Elmer) microplate reader at an absorption wavelength of 340 nm and an emission wavelength of 460 nm. IC50 values were determined using 4-parameter logistic curve fit program of GraphPad Prism.

Sequence of cathepsin S (P25774 115-331, species assumed): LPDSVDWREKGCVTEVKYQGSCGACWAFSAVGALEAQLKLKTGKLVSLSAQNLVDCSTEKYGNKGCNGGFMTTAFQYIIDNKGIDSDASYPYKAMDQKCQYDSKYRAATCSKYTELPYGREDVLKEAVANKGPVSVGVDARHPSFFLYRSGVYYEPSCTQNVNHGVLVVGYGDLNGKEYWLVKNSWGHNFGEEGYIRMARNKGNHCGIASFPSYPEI
Sequence of cathepsin L (P07711 114-333, species assumed): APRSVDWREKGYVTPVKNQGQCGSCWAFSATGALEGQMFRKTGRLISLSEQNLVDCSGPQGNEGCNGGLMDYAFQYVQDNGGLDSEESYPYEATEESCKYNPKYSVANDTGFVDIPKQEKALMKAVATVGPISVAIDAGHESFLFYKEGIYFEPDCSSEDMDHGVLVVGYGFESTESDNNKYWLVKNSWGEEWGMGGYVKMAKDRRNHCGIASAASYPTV

N#Cc1nccc(C2(NC(=O)Nc3ccc(-c4ccncc4)cc3)CCCCC2)n1 [Example 119, 1-(1-(2-cyanopyrimidin-4-yl)cyclohexyl)-3-(4-(pyridin-4-yl)phenyl)urea]
IC50 [1]: > 10000 nM | IC50 [2]: 9.6 nM | IC50 [3]: > 10000 nM | IC50 [4]: 6790 nM

N#Cc1nccc(C2(NC(=O)Nc3ccc(-c4ccc(C(F)(F)F)nc4)cc3)CCCCC2)n1 [Example 126, 1-(1-(2-cyanopyrimidin-4-yl)cyclohexyl)-3-(4-(6-(trifluoromethyl)pyridin-3-yl)phenyl)urea]
IC50 [1]: > 10000 nM | IC50 [2]: 25.1 nM | IC50 [3]: 5750 nM | IC50 [4]: > 10000 nM

CS(=O)(=O)c1ccc(-c2ccc(NC(=O)NC3(c4ccnc(C#N)n4)CCCCC3)cc2C(F)(F)F)cc1C(F)(F)F [Example 178, 1-(1-(2-cyanopyrimidin-4-yl)cyclohexyl)-3-(4′-(methylsulfonyl)-2,3′-bis(trifluoromethyl)-[1,1′-biphenyl]-4-yl)urea]
IC50 [1]: > 10000 nM | IC50 [2]: 21.2 nM | IC50 [3]: 5600 nM | IC50 [4]: > 10000 nM

N#Cc1nccc(C2(NC(=O)Nc3ccc(-c4ccc(C(=O)NCCn5nccn5)cc4)c(F)c3)CCCCC2)n1 [Example 188, N-(2-(2H-1,2,3-triazol-2-yl)ethyl)-4′-(3-(1-(2-cyanopyrimidin-4-yl)cyclohexyl)ureido)-2′-fluoro-[1,1′-biphenyl]-4-carboxamide]
IC50 [1]: > 10000 nM | IC50 [2]: 16.1 nM | IC50 [3]: 4330 nM | IC50 [4]: > 10000 nM

N#Cc1nccc(C2(NC(=O)Nc3ccc(-c4ccc(N5CCOCC5)cc4)cc3)CCCCC2)n1 [Example 117, 1-(1-(2-cyanopyrimidin-4-yl)cyclohexyl)-3-(4′-morpholino-[1,1′-biphenyl]-4-yl)urea]
IC50 [1]: > 10000 nM | IC50 [2]: 4.1 nM | IC50 [3]: > 10000 nM | IC50 [4]: > 10000 nM

N#Cc1nccc(C2(NC(=O)Nc3ccc(-c4ccc(O)cc4)cc3)CCCCC2)n1 [Example 115, 1-(1-(2-cyanopyrimidin-4-yl)cyclohexyl)-3-(4′-hydroxy-[1,1′-biphenyl]-4-yl)urea]
IC50 [1]: > 10000 nM | IC50 [2]: 9.2 nM | IC50 [3]: > 10000 nM | IC50 [4]: > 10000 nM

COCCNC(=O)c1ccc(-c2ccc(NC(=O)NC3(c4ccnc(C#N)n4)CCCCC3)cc2)cc1 [Example 147, 4′-(3-(1-(2-cyanopyrimidin-4-yl)cyclohexyl)ureido)-N-(2-methoxyethyl)-[1,1′-biphenyl]-4-carboxamide]
IC50 [1]: > 10000 nM | IC50 [2]: 5.2 nM | IC50 [3]: 7930 nM | IC50 [4]: > 10000 nM

Cc1cc(C)cc(NC(=O)NC2(c3ccnc(C#N)n3)CCCC2)c1 [Example 63, 1-(1-(2-cyanopyrimidin-4-yl)cyclopentyl)-3-(3,5-dimethylphenyl)urea]
IC50 [1]: > 10000 nM | IC50 [2]: 64.3 nM | IC50 [3]: > 10000 nM | IC50 [4]: > 10000 nM

N#Cc1nccc(C2(NC(=O)Nc3ccc(-c4ccc(C(F)(F)F)cc4)cc3)CCCCC2)n1 [Example 114, 1-(1-(2-cyanopyrimidin-4-yl)cyclohexyl)-3-(4′-(trifluoromethyl)-[1,1′-biphenyl]-4-yl)urea]
IC50 [1]: > 10000 nM | IC50 [2]: 69.7 nM | IC50 [3]: > 10000 nM | IC50 [4]: > 10000 nM

N#Cc1nccc(C2(NC(=O)Nc3cc(C(F)(F)F)ccc3F)CCCC2)n1 [Example 83, 1-(1-(2-cyanopyrimidin-4-yl)cyclopentyl)-3-(2-fluoro-5-(trifluoromethyl)phenyl)urea]
IC50 [1]: > 10000 nM | IC50 [2]: 17 nM | IC50 [3]: > 10000 nM | IC50 [4]: > 10000 nM

N#Cc1nccc(C2(NC(=O)Nc3ccc(-c4cccnc4)cc3)CCCCC2)n1 [Example 128, 1-(1-(2-cyanopyrimidin-4-yl)cyclohexyl)-3-(4-(pyridin-3-yl)phenyl)urea]
IC50 [1]: > 10000 nM | IC50 [2]: 13.6 nM | IC50 [3]: 9060 nM | IC50 [4]: > 10000 nM

N#Cc1nccc(C2(NC(=O)Nc3ccc(-c4ccc(C(=O)NCCn5ccnc5)cc4)c(F)c3)CCCCC2)n1 [Example 186, N-(2-(1H-imidazol-1-yl)ethyl)-4′-(3-(1-(2-cyanopyrimidin-4-yl)cyclohexyl)ureido)-2′-fluoro-[1,1′-biphenyl]-4-carboxamide]
IC50 [1]: 2740 nM | IC50 [2]: 0.1 nM | IC50 [3]: > 10000 nM | IC50 [4]: 2020 nM

CS(=O)(=O)c1ccc(-c2ccc(NC(=O)NC3(c4ccnc(C#N)n4)CCCCC3)cc2F)cc1 [Example 167, 1-(1-(2-cyanopyrimidin-4-yl)cyclohexyl)-3-(2-fluoro-4′-(methylsulfonyl)-[1,1′-biphenyl]-4-yl)urea]
IC50 [1]: > 10000 nM | IC50 [2]: 8 nM | IC50 [3]: 1110 nM | IC50 [4]: > 10000 nM

N#Cc1nccc(C2(NC(=O)Nc3ccc4ccccc4c3)CCCC2)n1 [Example 75, 1-(1-(2-cyanopyrimidin-4-yl)cyclopentyl)-3-(naphthalen-2-yl)urea]
IC50 [1]: > 10000 nM | IC50 [2]: 41 nM | IC50 [3]: > 10000 nM | IC50 [4]: > 10000 nM

CC(C)N1CCN(c2ccc(-c3ccc(NC(=O)NC4(c5ccnc(C#N)n5)CCCCC4)cc3)cc2)CC1 [Example 154, 1-(1-(2-cyanopyrimidin-4-yl)cyclohexyl)-3-(4′-(4-isopropylpiperazin-1-yl)-[1,1′-biphenyl]-4-yl)urea]
IC50 [1]: 3210 nM | IC50 [2]: 0.3 nM | IC50 [3]: > 10000 nM | IC50 [4]: 4280 nM

CN(C)C(=O)c1ccc(-c2ccc(NC(=O)NC3(c4ccnc(C#N)n4)CCCCC3)cc2)cc1 [Example 130, 4′-(3-(1-(2-cyanopyrimidin-4-yl)cyclohexyl)ureido)-N,N-dimethyl-[1,1′-biphenyl]-4-carboxamide]
IC50 [1]: > 10000 nM | IC50 [2]: 7.8 nM | IC50 [3]: 9070 nM | IC50 [4]: > 10000 nM

N#Cc1nccc(C2(NC(=O)OCc3cccc(F)c3)CCCCC2)n1 [Example 15, 3-fluorobenzyl (1-(2-cyanopyrimidin-4-yl)cyclohexyl)carbamate]
IC50 [1]: > 10000 nM | IC50 [2]: 45.5 nM | IC50 [3]: 8600 nM | IC50 [4]: 1620 nM

CC(NC(=O)NC1(c2ccnc(C#N)n2)CCCC1)c1ccccc1 (centres unmarked) [Example 51, 1-(1-(2-cyanopyrimidin-4-yl)cyclopentyl)-3-(1-phenylethyl)urea]
IC50 [1]: > 10000 nM | IC50 [2]: 38.8 nM | IC50 [3]: > 10000 nM | IC50 [4]: 4170 nM

Cc1ccccc1CNC(=O)NC1(c2ccnc(C#N)n2)CCCC1 [Example 46, 1-(1-(2-cyanopyrimidin-4-yl)cyclopentyl)-3-(2-methylbenzyl)urea]
IC50 [1]: > 10000 nM | IC50 [2]: 13.2 nM | IC50 [3]: > 10000 nM | IC50 [4]: 5970 nM

N#Cc1nccc(C2(NC(=O)Nc3ccc(-c4ccc(C(=O)NCC5CCCO5)cc4)cc3)CCCCC2)n1 (centres unmarked) [Example 158, 4′-(3-(1-(2-cyanopyrimidin-4-yl)cyclohexyl)ureido)-N-((tetrahydrofuran-2-yl)methyl)-[1,1′-biphenyl]-4-carboxamide]
IC50 [1]: 5650 nM | IC50 [2]: 6.6 nM | IC50 [3]: 9430 nM | IC50 [4]: > 10000 nM

Reference: patent US11299478B2, “2-cyanopyrimidin-4-yl carbamate or urea derivative or salt thereof, and pharmaceutical composition including same” (HANLIM PHARMACEUTICAL CO., LTD., priority 2018, dated 2022)
